This note sets out measurements from PMC4786250, “Effects of Intraosseous Tibial vs. Intravenous Vasopressin in a Hypovolemic Cardiac Arrest Model” (Western Journal of Emergency Medicine, 2016).

The test system of data set [1] is hypovolemic cardiac arrest model. As to the kind of experiment: Return of spontaneous circulation (ROSC) in a hypovolemic cardiac arrest model. Conditions: for time to ROSC: 40 units, mean ± standard deviation, SD; for Number achieving ROSC / Number not achieving ROSC: 40 units + CPR + defibrillation, up to 20 min. It counts as in vivo, Yorkshire swine. From the text: (§1) The study was a prospective, between-subjects, experimental design. The Institutional Animal Care and Use Committee (IACUC) approved the research protocol, and the animals received care in compliance with the Animal Welfare Act. Twenty-eight Yorkshire swine were randomly assigned by a computer generated random number program to one of four groups: IV + defibrillation (n=7), IO tibia + defibrillation (n=7), CPR + defibrillation (n=7), and a control group that received just CPR (n=7). Two additional swine were added in the each of the IV and IO groups for model development. These two swine meet the criteria for inclusion in the study, and no changes were necessary in the protocol. Therefore, the pigs were included in both groups to make a total of eight in both the tibial IO and IV groups. However, one pig in the IO group was ill and was deleted from the study making a total of seven in that group.
(§2) In addition, their blood volume is the same as humans: 70ml per kg of body weight.[18],[19] To avoid any variability in subjects, we purchased the swine from the same vendor and acquired pigs that were approximately the same size. Male swine were used to avoid any potential hormonal effects. Subjects weighing between 60 to 80kg were used as this range represents the average weight of an adult, human.[20] […] All subjects received no food after midnight the evening before the study but were allowed fluids as desired until the experiment
(§3) Each subject received pre-emptive analgesia with Telazol (4–8mg/kg). They were then sedated, anesthetized, intubated, and placed on mechanical ventilation. A standard Narkomed® anesthesia machine (Dräger, Telford, PA) was used to deliver isoflurane at a maintenance dose (0.5–2%) and ventilation at 8–10mL/kg at 10–14 breaths per minute. A peripheral IV was started on all subjects using an 18- or 20-gauge catheter in the auricular vein. […] Hemodynamics were evaluated continuously that included the following: electrocardiogram, arterial blood pressure via a left carotid artery catheter, mean arterial pressure, oxygen saturation, end-tidal carbon dioxide, and temperature. A forced-air warming blanket was used to sustain rectal temperature greater than 36 degrees Celsius. A Vigileo™ (Edwards Lifesciences, Irvine, CA) was used to obtain cardiac output and stroke volume measurements via the arterial line. The femoral artery was cannulated for the collection of blood samples and for the achievement of controlled hemorrhage.
(§4) For swine in the tibial IO group, we inserted an EZ-IO® device (Vidacare, San Antonio, TX) in the proximal, medial tibia. Placement was confirmed by aspiration of blood and easy irrigation with 10mL of 0.9% normal saline (NS). Patency was maintained by administering Lactated Ringer’s solution with a pressure bag at 300mmHg. Subjects were allowed to stabilize for 15 minutes; we then exsanguinated 31% of their blood volume from the femoral artery catheter into a canister. This represented a Class III hemorrhage. Hemorrhage was accomplished by allowing blood to drain by gravity over approximately 15 minutes. To ensure the amount exsanguinated was correct, the investigators used a scale that was accurate and precise within 0.5%.
(§5) In response to hypovolemic shock in accordance with Tactical Combat Casualty Care guidelines, we administered 500mL of 5% albumin to all subjects over 10 minutes.[22] Five minutes after the administration of albumin, the investigators placed the pigs in cardiac arrest, defined as a nonperfusing arrhythmia. […] The needles were attached to alligator clamps. The clamps were attached to three 9-volt batteries that were connected in a series to deliver an electrical current, thereby inducing nonperfusing ventricular fibrillation. We were able to establish ventricular fibrillation usually within 10 seconds. In some cases, we had to reposition the needles resulting in 100% being placed into ventricular fibrillation.
(§6) The pigs were allowed to remain in arrest for two minutes. […]

Data set [2] in a line: Vasopressin concentration in blood samples (HPLC-MS/MS) after tibial IO or IV administration in a hypovolemic cardiac arrest model. The following applies: 40 units; for Cmax / Tmax / level at 1 min: Yorkshire, serum; for Cmax / Tmax: pig, mean ± standard deviation; for Cmax: during CPR, male swine 60-80 kg, 31% blood volume hemorrhage, ventricular fibrillation, femoral artery samples 0.5-4 min, HPLC-MS/MS; for Tmax / level at 1 min: male; for Tmax: SD; for level at 1 min: 60 seconds after injection, mean ± standard error, SEM. The data set is classed as in vivo, Yorkshire swine.
Source text: as §1, §2, §3, §4, §5, §6

Each structure is given as a SMILES string.

What is called Cmax is the peak of the concentration-time curve. One may read the Tmax as the time from dosing to the highest level. On to `NC(=O)CC[C@@H]1NC(=O)[C@H](Cc2ccccc2)NC(=O)[C@H](Cc2ccc(O)cc2)NC(=O)[C@@H](N)CSSC[C@@H](C(=O)N2CCC[C@H]2C(=O)N[C@@H](CCCN=C(N)N)C(=O)NCC(N)=O)NC(=O)[C@H](CC(N)=O)NC1=O` [vasopressin], for which the results for the “time to ROSC” value in data set [1] (IO group (line "IO vs. CPR + defibrillation")) and in data set [1] (IV group (line "IV vs. IO")) were 493 ± 226 s and 559 ± 231 s, respectively. In addition, the “Odds of ROSC” value in data set [1] (IO vs. CPR + defibrillation) was 15; in data set [1] (IO vs. CPR only) it was 65; in data set [1] (IV vs. CPR + defibrillation), 17.5; in data set [1] (IV vs. CPR only) it was 75. For the same molecule, the “Number achieving ROSC” value is 7 in data set [1] (IV, N=8) and 6 in data set [1] (tibial IO, N=7). Also, the “Number not achieving ROSC” value in data set [1] (IV, N=8) is 1; in data set [1] (tibial IO, N=7), 1. Besides, the Cmax turned out to be 106 ng/mL in data set [2] (IV (auricular vein) push, n=8) and 58.7 ng/mL in data set [2] (tibial IO push, n=7). Further, the Tmax in data set [2] (IV, n=8) was 1.43 min; in data set [2] (tibial IO, n=7), 2.63 min. Also, the level at 1 min is 76.8 ng/mL in data set [2] (IV, n=8) and 23.6 ng/mL in data set [2] (tibial IO, n=7). Further, the “Cmax concentration of the IO group compared to the IV group” value in data set [2] (tibial IO relative to IV) is given as 55%.
